Where a name gives a salt, the structure may show the parent alone.
Biological target: PAI-1 (Homo sapiens, UniProt P05121)
Test: PAI-1 inhibition in the S2251 chromogenic substrate assay (PAI functional assay)
Type: biochemical
Conditions: for INHIBITION OF PAI-1 (degree of inhibition): unit assumed; for IC50: PAI-1, S2251 assay; for inhibition at 20 µM / inhibition at 50 µM / inhibition at 100 µM: read-out: INHIBITION OF PAI-1 (degree of inhibition)
Procedure: In this assay, a compound is incubated with PAI-1 prior to addition to the tPA assay system. Inhibition of PAI-1 results in the production of plasmin from plasminogen. […]
Compounds of formula (A) were tested in a PAI chromogenic substrate assay. […] In turn, the plasmin cleaved the chromogenic substrate S2251 (Kabi-Vitrum) producing pNA (p-nitroaniline) which was detected scectrophotometrically at 405 nm.

Sequence of PAI-1 (P05121 24-402): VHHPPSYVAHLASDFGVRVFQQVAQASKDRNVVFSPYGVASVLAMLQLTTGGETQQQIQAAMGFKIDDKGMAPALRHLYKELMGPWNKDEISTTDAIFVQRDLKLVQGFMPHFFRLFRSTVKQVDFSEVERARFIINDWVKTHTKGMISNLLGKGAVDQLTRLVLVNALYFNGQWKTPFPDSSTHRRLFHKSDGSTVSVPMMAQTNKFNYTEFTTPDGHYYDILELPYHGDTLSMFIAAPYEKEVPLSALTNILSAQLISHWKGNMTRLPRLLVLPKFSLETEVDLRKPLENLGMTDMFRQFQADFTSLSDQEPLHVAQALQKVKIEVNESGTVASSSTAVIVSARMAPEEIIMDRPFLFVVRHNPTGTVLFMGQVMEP

Row | SMILES | INHIBITION OF PAI-1 (degree of inhibition) (6.25 μm, Table 1, first part) | INHIBITION OF PAI-1 (degree of inhibition) (12.5 μm, Table 1, first part) | INHIBITION OF PAI-1 (degree of inhibition) (25 μm, Table 1, first part) | INHIBITION OF PAI-1 (degree of inhibition) (50 μm, Table 1, first part) | INHIBITION OF PAI-1 (degree of inhibition) (100 μm, Table 1, first part) | also measured
1 | Cc1[nH]cnc1/C=c1\[nH]c(=O)/c(=C/c2ccccc2)[nH]c1=O [Compound 1927, (3Z,6Z)-3-Benzylidene-6-(4-(5-methylimidazolyl))methylene-2,5-piperazinedione] | 14% | 22% | 20% | 39% | 33% | –
2 | COc1ccc(/C=c2\[nH]c(=O)/c(=C/c3cc4ccccc4[nH]3)[nH]c2=O)cc1 [Compound 1718, (3Z,6Z)-3-(2-Indolylmethylene)-6-(4-methoxybenzylidene)-2,5-piperazinedione] | 1% | 0% | 0% | 1% | 62% | IC50 (Table 2): 50 to 100 µM
3 | CC(C)(C)OC(=O)n1cccc1/C=c1\[nH]c(=O)/c(=C/c2ccccc2)[nH]c1=O [Compound 1470, (3Z,6Z)-3-Benzylidene-6-(2-(1-tertbutoxycarbonyl)pyrrolyl)methylene-2,5-piperazinedione] | 0% | 0% | 2% | 20% | 70% | IC50 (Table 2): 50 to 100 µM
4 | CN(C)CCc1ccc(/C=c2\[nH]c(=O)/c(=C/c3ccccc3)[nH]c2=O)s1 [Compound 5335, (3Z,6Z)-6-Benzylidene-3-(5-(2-dimethylaminoethyl)-2-thienylmethylene)-2,5-piperazinedione] | – | – | – | – | – | IC50 (Table 1, second part): 22 µM
5 | O=c1[nH]/c(=C\C2CCCCC2)c(=O)[nH]/c1=C\c1ccccc1 [Compound 1884, (3Z,6Z)-3-Benzylidene-6-cyclohexylmethylene-2,5-piperazinedione] | 0% | 0% | 0% | 14% | 40% | –
6 | O=c1[nH]/c(=C\c2ccc(OCCN3CCOCC3)cc2)c(=O)[nH]/c1=C\c1ccccc1 [Compound 5054, (3Z,6Z)-6-Benzylidene-3-(4-(2-morpholinoethoxy)benzylidene)-2,5-piperazinedione] | – | – | – | – | – | inhibition at 20 µM (20 μM, Table 1, second part): 48%; inhibition at 50 µM (Table 1, second part): 57%; inhibition at 100 µM (Table 1, second part): 5%
7 | O=c1[nH]/c(=C\c2c[nH]cn2)c(=O)[nH]/c1=C\c1ccccc1 [Compound 1926, (3Z,6Z)-3-Benzylidene-6-(4-imidazolyl)methylene-2,5-piperazinedione] | 10% | 6% | 12% | 35% | 36% | –
8 | CN(C)CCOCCOc1ccc(/C=c2\[nH]c(=O)/c(=C/c3ccccc3)[nH]c2=O)s1 [Compound 5388, (3Z,6Z)-6-Benzylidene-3-(5-(2-(2-dimethylaminoethoxy)ethoxy)-2-thienylmethylene)-2,5-piperazinedione] | – | – | – | – | – | inhibition at 20 µM (20 μM, Table 1, second part): 58%; IC50 (Table 1, second part): 9 µM
9 | CN(C)CC(=O)NCc1ccc(/C=c2\[nH]c(=O)/c(=C/c3ccoc3)[nH]c2=O)cc1 [Compound 5081, (3Z,6Z)-6-(4-Dimethylaminoacetamidomethylbenzylidene)-3-(3-furylmethylene)-2,5-piperazinedione] | – | – | – | – | – | inhibition at 20 µM (20 μM, Table 1, second part): 50%; inhibition at 50 µM (Table 1, second part): 34%; inhibition at 100 µM (Table 1, second part): 25%
10 | CN(C)CCOc1ccc(/C=c2\[nH]c(=O)/c(=C/c3ccccc3)[nH]c2=O)s1 [Compound 5324, (3Z,6Z)-6-Benzylidene-3-(5-(2-dimethylaminoethoxy)-2-thienylmethylene)-2,5-piperazinedione] | – | – | – | – | – | IC50 (Table 1, second part): 9 µM
11 | CN(C)CCCOc1ccc(/C=c2\[nH]c(=O)/c(=C/c3ccc(C(=O)NCCN4CCc5ccccc5C4)cc3)[nH]c2=O)cc1 [Compound 5386, N-(2-(1,2,3,4-Tetrahydro-2-isoquinolyl)ethyl)-4-((3Z,6Z)-6-(4-(3-dimethylaminopropoxy)benzylidene)-2,5-dioxo-3-piperazinylidene)methylbenzamide] | – | – | – | – | – | IC50 (Table 1, second part): 18 µM
12 | O=C(NCCN1CCc2ccccc2C1)c1ccc(/C=c2\[nH]c(=O)/c(=C/c3ccccc3)[nH]c2=O)cc1 [Compound 5391.HCl] | – | – | – | – | – | INHIBITION OF PAI-1 (degree of inhibition) (20 μM, Table 1, second part): 100%; IC50 (Table 1, second part): 3.5 µM
13 | CCOC(OCC)c1ccc(/C=c2\[nH]c(=O)/c(=C/c3ccccc3)[nH]c2=O)cc1 [Compound 1891] | 3% | 3% | 17% | 36% | 28% | –
14 | CN(C)CCCOc1ccc(/C=c2\[nH]c(=O)/c(=C/c3ccc(Cn4ccnc4)cc3)[nH]c2=O)cc1 [Compound 5026, (3Z,6Z)-3-(4-(3-Dimethylaminopropoxy)benzylidene)-6-(4-(1-imidazolyl)methylbenzylidene)-2,5-piperazinedione] | – | – | – | – | – | inhibition at 20 µM (20 μM, Table 1, second part): 10%; inhibition at 100 µM (Table 1, second part): 34%
15 | COc1ccc(/C=c2\[nH]c(=O)/c(=C/c3cn(C(=O)OC(C)(C)C)c4ccccc34)[nH]c2=O)cc1 [Compound 1506, (3Z,6Z)-3-(4-Methoxybenzylidene)-6-(3-(1-tert-butoxycarbonyl)indolyl)methylene-2,5-piperazinedione] | 2% | 4% | 26% | 58% | 75% | IC50 (Table 2): 25 to 50 µM
16 | O=c1[nH]/c(=C\c2ccc(OCCN3CCCC3)cc2)c(=O)[nH]/c1=C\c1ccccc1 [Compound 5053, (3Z,6Z)-6-Benzylidene-3-(4-(2-(1-pyrrolidinyl)ethoxy)benzylidene)2,5-piperazinedione] | – | – | – | – | – | inhibition at 20 µM (20 μM, Table 1, second part): 56%; inhibition at 50 µM (Table 1, second part): 64%; inhibition at 100 µM (Table 1, second part): 68%
17 | CN(C)c1ccc(C=C/C=c2\[nH]c(=O)/c(=C/c3ccccc3)[nH]c2=O)cc1 [Compound 1921, (3Z,6Z)-3-Benzylidene-6-(4-dimethylaminocinnamylidene)-2,5-piperazinedione] | 16% | 14% | 25% | 43% | 65% | –
18 | COc1ccc(/C=c2\[nH]c(=O)/c(=C/c3ccc(CN)cc3)[nH]c2=O)cc1 [Compound 1657, (3Z,6Z)-3-(4-Aminomethylbenzylidene)-6-(4-methoxybenzylidene)-2,5-piperazinedione] | – | 2% | 46% | 60% | 53% | IC50 (Table 2): 25 to 50 µM
19 | CN1CCC(N(C)Cc2ccc(/C=c3\[nH]c(=O)/c(=C/c4ccccc4)[nH]c3=O)cc2)CC1 [Compound 1983] | 0% | 0% | 0% | 14% | 34% | –
20 | CC(=O)Nc1ccc(/C=c2\[nH]c(=O)/c(=C/C=Cc3ccccc3)[nH]c2=O)cc1 [Compound 1676, (3Z,6Z)-3-(4-Acetamidobenzylidene)-6-cinnamylidene-2,5-piperazinedione] | 1% | 12% | 52% | 51% | 29% | IC50 (Table 2): 12 to 25 µM
21 | CN(C)CCCOc1ccc(/C=c2\[nH]c(=O)/c(=C/c3ccc(C(=O)NCCCCN4CCc5ccccc5C4)cc3)[nH]c2=O)cc1 [Compound 5397, N-(4-(1,2,3,4-Tetrahydro-2-isoquinolyl)butyl)-4-((3Z,6Z)-6-(4-(3-dimethylaminopropoxy)benzylidene)-2,5-dioxo-3-piperazinylidene)methylbenzamide] | – | – | – | – | – | INHIBITION OF PAI-1 (degree of inhibition) (20 μM, Table 1, second part): 42%
22 | CN(C)CCOCc1ccc(/C=c2\[nH]c(=O)/c(=C/c3ccsc3)[nH]c2=O)cc1 [Compound 5069, (3Z,6Z)-6-(4-(2-Dimethylaminoethoxymethyl)benzylidene)-3-(3-thenylidene)-2,5-piperazinedione] | – | – | – | – | – | inhibition at 20 µM (20 μM, Table 1, second part): 75%; inhibition at 50 µM (Table 1, second part): 71%; inhibition at 100 µM (Table 1, second part): 70%
23 | O=c1[nH]/c(=C\c2ccccc2)c(=O)[nH]/c1=C\C=Cc1ccc([N+](=O)[O-])cc1 [Compound 1923] | 13% | 12% | 20% | 31% | 38% | –
24 | COc1cc(C=C/C=c2\[nH]c(=O)/c(=C/c3ccccc3)[nH]c2=O)ccc1OCCN(C)C [Compound 1950, (3Z,6Z)-3-Benzylidene-6-(4-(2-dimethylaminoethoxy)-3-methoxycinnamylidene)-2,5-piperazinedione] | 1% | 2% | 2% | 3% | 19% | –
25 | O=c1[nH]/c(=C\c2ccc(Cn3ccnc3)cc2)c(=O)[nH]/c1=C\c1ccccc1 [Compound 1929, (3Z,6Z)-3-Benzylidene-6-(4-(1-imidazolylmethyl)benzylidene)-2,5-piperazinedione] | 16% | 48% | 59% | 45% | 27% | –
26 | CN(C)CCCOc1ccc(/C=c2\[nH]c(=O)/c(=C/c3ccc(C(=O)N4CCc5ccccc5C4)cc3)[nH]c2=O)cc1 [Compound 5367] | – | – | – | – | – | IC50 (Table 1, second part): 18 µM
